This passage reports Activity results from ChEMBL document CHEMBL6109177, “AI-Driven De Novo Design and Development of Nontoxic DYRK1A Inhibitors” (J Med Chem, 2025).

Activity calls are given as the source filed them. The calls are words filed in the database; no cut-off is given here.

Data set [1] relates to BV-2. As to the kind of experiment: Cytotoxicity against mouse BV-2 cells assessed as cell viability at 10 uM by MTT assay. Conditions: bv-2, 10 µM. The data set is classed as toxicity, cell-based.
Data set [2] deals with BV-2. As to the kind of experiment: Cytotoxicity against mouse BV-2 cells assessed as cell viability at 5 uM by MTT assay. It counts as toxicity, cell-based. Conditions: bv-2, 5 µM.
Data set [3] deals with BV-2. As to the kind of experiment: Anti-inflammatory activity in mouse BV-2 cells assessed as reduction in LPS-induced NO production at 5 uM pretreated with LPS for 24 hrs followed by compound addition and measured after 24 hrs by Griess reagent based analysis. The data set is classed as functional, cell-based.
The test system of data set [4] is BV-2. As to the kind of experiment: Anti-inflammatory activity in mouse BV-2 cells assessed as reduction in LPS-induced NO production pretreated with LPS for 24 hrs followed by compound addition and measured after 24 hrs by Griess reagent based analysis. The data set is classed as functional, cell-based. Conditions: dose 0.5-5 µM.
Data set [5] relates to BV-2. As to the kind of experiment: Cytotoxicity against mouse BV-2 cells assessed as cell viability up to 10 uM by MTT assay. It counts as toxicity, cell-based. Conditions: bv-2, 10 µM.
Data set [6] has as its system BV-2. As to the kind of experiment: Anti-inflammatory activity in mouse BV-2 cells assessed as reduction in LPS-induced NO production at 10 uM pretreated with LPS for 24 hrs followed by compound addition and measured after 24 hrs by Griess reagent based analysis. The data set is classed as functional, cell-based.

As to `CN1CCC(n2cc(-c3cnc4[nH]cc(-c5cccc(F)c5)c4c3)cn2)CC1`, the Activity result was “Toxic” in data set [1], “Non-toxic” in data set [2], “Active; Compound Showed Most Pronounced Effect Compared With Other Tested Compounds” in data set [3] and “Dose-dependent-effect” in data set [4].
On to `CN1CCC(n2cc(-c3cnc4[nH]cc(-c5cc(Cl)cc(Cl)c5)c4c3)cn2)CC1`, for which the Activity result in data set [5] is given as “Non-toxic”. Also, the result in data set [6] was Active.
With `COc1cccc(-c2c[nH]c3ncc(-c4cnn(C5CCN(C)CC5)c4)cc23)c1`, the values for the Activity entry in data set [1], in data set [2] and in data set [4] were “Toxic”, “Non-toxic” and “Dose-dependent-effect”, respectively. Moreover, the outcome in data set [3] was Active.
On the same counts, the results for `Fc1cccc(-c2c[nH]c3ncc(-c4cnn(C5CCNCC5)c4)cc23)c1` are “Toxic”, “Non-toxic”, “Dose-dependent-effect” and “Active; Compound Showed Most Pronounced Effect Compared With Other Tested Compounds”.
On to `Clc1cc(Cl)cc(-c2c[nH]c3ncc(-c4cnn(C5CCNCC5)c4)cc23)c1`, for which the Activity result in data set [5] is given as “Non-toxic”. For the same molecule, in data set [6], the outcome was Active.
On the same counts, the results for `COc1cc(-c2c[nH]c3ncc(-c4cnn(C5CCN(C)CC5)c4)cc23)c(F)cc1C` are “Non-toxic” and “Active”.
Turning to `COc1cc(-c2c[nH]c3ncc(-c4cnn(C5CCNCC5)c4)cc23)c(F)cc1C`, in data set [5], the Activity result was “Non-toxic”. Besides, in data set [6], the result was Active.
`COc1cccc(-c2c[nH]c3ncc(-c4cnn(C5CCNCC5)c4)cc23)c1`: the Activity result is “Toxic” in data set [1], “Non-toxic” in data set [2] and “Dose-dependent-effect” in data set [4]. In addition, the result in data set [3] was Active.
